Laboratory results as given in patent publication US20100249082A1, “MODULATORS OF HYPOXIA INDUCIBLE FACTOR-1 AND RELATED USES” (Bionaut Pharmaceuticals INC., priority 2007, published 2010).

Columns and labels:
[1] = cited from earlier work; for max. plasma concentration: in vivo
Na^+, K^+-ATPase [2] = test: cell-based; details: for Inhibition (%) / Normalized Uptake (%): CHO-K1; for Sample Solubility: CHO-K1 screen test wells, 1% DMSO
Procedure: (§1) Compounds were screened using Ion Channel Research (ICR) technology and a non-radioactive Rubidium Uptake Assay
(§2) For all the test compounds and standard blockers, 100× solutions were used to prepare 1× test doses for Na^+, K^+-ATPase screen in CHO cell line. The final DMSO concentration in each well was 1%.
(§3) • 1. […] Rb^+ Uptake: Cells were washed with 200 μl of Rb^+ Uptake Buffer once and R^+ loaded by application of 198 μl R^+ Uptake Buffer. Compounds were added at 2 μl/well of a 100× stock solution in 100% DMSO in the uptake buffer followed by incubation for 30 minutes at room temperature (c. 22° C.). The total volume in each well was 200 μl (198 μl of R^+ Uptake Buffer and 2 μl of the 100× compound). The 100× compound solution gets diluted in R^+ Uptake Buffer to 1× and the DMSO to 1%. • 3. Wash: Residual R^+ and compound were removed by four successive washes with 200 μl of SPA-Wash Buffer. • 4. Cell Lysis: Intracellular samples were obtained by whole cell lysis with the application of 200 μl Lysis Solution. • 5. Analysis: The level of R^+ in the intracellular samples was measured by ICR8000 (Aurora Biomed Inc., Vancouver, Canada). using flame atomic absorption spectroscopy.

Na^+, K^+-ATPase [3] = biological target: Na^+, K^+-ATPase (Cricetulus griseus, UniProt A0A8C2N4Z0); test: cell-based; details: for inhibition at 0.5 µM / inhibition at 1 µM / inhibition at 5 µM / inhibition at 10 µM / inhibition at 50 µM / inhibition at 100 µM / inhibition at 200 µM / inhibition at 500 µM: CHO-K1; for remaining activity at 0.5 µM / remaining activity at 1 µM / remaining activity at 5 µM / remaining activity at 10 µM / remaining activity at 50 µM / remaining activity at 100 µM / remaining activity at 200 µM / remaining activity at 500 µM: CHO-K1, 0.5 h, read-out: Normalized Uptake (%)
Procedure: as §1, §2, §3

[4] = Sample solubility noted in the rubidium uptake assay; assay type: physicochemical; details: DMSO 1.0%
Na^+, K^+-ATPase [5] = biological target: T1, Na^+, K^+-ATPase (Homo sapiens, UniProt P05023); test: cell-based; details: for Rank order: HEK-293, ranked on potency (IC50 value); for inhibition at 0.01 µM / inhibition at 0.1 µM / inhibition at 1 µM / inhibition at 5 µM / inhibition at 10 µM / inhibition at 50 µM: HEK293, HEK-293; for inhibition at 0.01 µM: Log[drug](M) −8.0; for inhibition at 5 µM: Log[drug](M) −5.3; for inhibition at 10 µM: Log[drug](M) −5.0; for inhibition at 50 µM: Log[drug](M) −4.3; for Sample Solubility: HEK-293 screen test wells, 1% DMSO
T1 construct: The HEK-293 cell line endogenously expressing Na^+, K^+-ATPase; endogenous in cells; host or cells: HEK-293
Procedure: Cells were plated at a density of 50,000 cells/well in 96-well microplates and incubated at 37° C., 5% CO2 until 80-90% confluency was attained

HIF-1α expression = test: Immunoblotting for hypoxia-mediated HIF-1α induction in human tumor cells (Caki-1, Panc-1); assay type: cell-based; details: Caki-1 or Panc-1 cells under hypoxia
HIF-1α accumulation = test: Western blot of HIF-1α induced by PHD inhibitor L-mimosone under normoxia in Hep3B cells; assay type: cell-based; details: 200 μM L-mimosone for 18 hours, Western blotting
Procedure: Abundance of HIF1α and β-actin was determined by Western blotting.

| SMILES | max. plasma concentration [1] | Sample Solubility (Na^+, K^+-ATPase [2]) | IC50 (Na^+, K^+-ATPase [3]) | IC50 (Na^+, K^+-ATPase [5]) | Rank order (Na^+, K^+-ATPase [5]) | inhibition at 0.5 µM (Na^+, K^+-ATPase [3]) | inhibition at 1 µM (Na^+, K^+-ATPase [3]) | inhibition at 5 µM (Na^+, K^+-ATPase [3]) | inhibition at 10 µM (Na^+, K^+-ATPase [3]) | inhibition at 50 µM (Na^+, K^+-ATPase [3]) | inhibition at 100 µM (Na^+, K^+-ATPase [3]) | inhibition at 200 µM (Na^+, K^+-ATPase [3]) | inhibition at 500 µM (Na^+, K^+-ATPase [3]) | remaining activity at 0.5 µM (Na^+, K^+-ATPase [3]) | remaining activity at 1 µM (Na^+, K^+-ATPase [3]) | remaining activity at 5 µM (Na^+, K^+-ATPase [3]) | remaining activity at 10 µM (Na^+, K^+-ATPase [3]) | remaining activity at 50 µM (Na^+, K^+-ATPase [3]) | remaining activity at 100 µM (Na^+, K^+-ATPase [3]) | remaining activity at 200 µM (Na^+, K^+-ATPase [3]) | also measured |
| --- | --- | --- | --- | --- | --- | --- | --- | --- | --- | --- | --- | --- | --- | --- | --- | --- | --- | --- | --- | --- | --- |
| C[C@@H]1O[C@@H](O[C@H]2C[C@@H](O)[C@]3(CO)[C@H]4[C@H](O)C[C@]5(C)[C@@H](C6=CC(=O)OC6)CC[C@]5(O)[C@@H]4CC[C@]3(O)C2)[C@H](O)[C@H](O)[C@H]1O [BNC1, ouabain] | about 0.03 μg/mL |  |  |  |  |  |  |  |  |  |  |  |  |  |  |  |  |  |  |  |  |
| C[C@@H]1O[C@@H](O[C@@H]2C=C3CC[C@@H]4[C@H](CC[C@]5(C)[C@@H](c6ccc(=O)oc6)CC[C@]45O)[C@@]3(C)CC2)[C@H](O)[C@H](O)[C@H]1O [BNC4, proscillaridin, reference compound] | about 0.1 μg/mL | Good | 46.4 µM | 0.24 µM | 1 |  |  |  |  |  |  |  |  |  |  |  |  |  |  |  | Inhibition (%) (Na^+, K^+-ATPase [2]; dose 0.50 uM): 1.3%; Normalized Uptake (%) (Na^+, K^+-ATPase [2]; dose 0.50 uM): 99.4%; Inhibition (%) (Na^+, K^+-ATPase [2]; dose 1.0 uM): 0.0%; Normalized Uptake (%) (Na^+, K^+-ATPase [2]; dose 1.0 uM): 100.3%; Inhibition (%) (Na^+, K^+-ATPase [2]; dose 5.0 uM): 9.0%; Normalized Uptake (%) (Na^+, K^+-ATPase [2]; dose 5.0 uM): 93.8%; Inhibition (%) (Na^+, K^+-ATPase [2]; dose 10 uM): 20.6%; Normalized Uptake (%) (Na^+, K^+-ATPase [2]; dose 10 uM): 80.5%; Inhibition (%) (Na^+, K^+-ATPase [2]; dose 50 uM): 51.8%; Normalized Uptake (%) (Na^+, K^+-ATPase [2]; dose 50 uM): 54.6%; Inhibition (%) (Na^+, K^+-ATPase [2]; dose 100 uM): 69.8%; Normalized Uptake (%) (Na^+, K^+-ATPase [2]; dose 100 uM): 44.0%; Inhibition (%) (Na^+, K^+-ATPase [2]; dose 200 uM): 86.7%; Normalized Uptake (%) (Na^+, K^+-ATPase [2]; dose 200 uM): 38.2%; Inhibition (%) (Na^+, K^+-ATPase [2]; dose 500 uM): 100.0%; Normalized Uptake (%) (Na^+, K^+-ATPase [2]; dose 500 uM): 28.7%; Sample Solubility [4]: Good; plasma half-life in human ([1]; human, according to the literature): about 40 hours; Potency in inhibiting HIF-1α expression relative to BNC1 (HIF-1α expression): about 10 times; Effect on HIF-1α accumulation induced by L-mimosone (HIF-1α accumulation): eliminated HIF-1α accumulation |
| C[C@]12CCC(=NOCCN3CCOCC3)C=C1CCC1C2CC[C@]2(C)[C@@H](c3ccc(=O)oc3)CC[C@]12O (stereo partly drawn) [BP245, 3-[2-(Morpholinoethoxy)imino]-scillarinone] |  | Good | 93.2 µM | 0.732 µM | 2 | 0% | 2.9% | 4.2% | 6.6% | 23.7% | 44.9% | 86.5% | 100% | 98.9% | 96.9% | 96% | 94.3% | 82.4% | 67.6% | 38.7% | remaining activity at 500 µM (Na^+, K^+-ATPase [3]): 29.3%; inhibition at 0.01 µM (Na^+, K^+-ATPase [5]): 0%; inhibition at 0.1 µM (Na^+, K^+-ATPase [5]; Log[drug](M) −7.0): 22.1%; inhibition at 0.1 µM (Na^+, K^+-ATPase [5]; Log[drug](M) −7.3): 8.3%; inhibition at 1 µM (Na^+, K^+-ATPase [5]; Log[drug](M) −6.0): 56%; inhibition at 1 µM (Na^+, K^+-ATPase [5]; Log[drug](M) −6.3): 36%; inhibition at 5 µM (Na^+, K^+-ATPase [5]): 92.3%; inhibition at 10 µM (Na^+, K^+-ATPase [5]): 94.1%; inhibition at 50 µM (Na^+, K^+-ATPase [5]): 100%; Sample Solubility (Na^+, K^+-ATPase [5]): Good |
| C[C@]12CCC(=NOCCCN3CCCCC3)C=C1CCC1C2CC[C@]2(C)[C@@H](c3ccc(=O)oc3)CC[C@]12O (stereo partly drawn) [BP246, 3-[3-(Piperidinopropoxy)imino]-scillarinone] |  | Good | 57.8 µM | 0.335 µM | 1 | 0% | 2.2% | 12% | 21.5% | 42% | 64.7% | 89.3% | 100% | 95.3% | 93.4% | 84.8% | 76.6% | 58.7% | 39% | 17.5% | remaining activity at 500 µM (Na^+, K^+-ATPase [3]): 8.2%; inhibition at 0.01 µM (Na^+, K^+-ATPase [5]): 0%; inhibition at 0.1 µM (Na^+, K^+-ATPase [5]; Log[drug](M) −7.0): 28.5%; inhibition at 0.1 µM (Na^+, K^+-ATPase [5]; Log[drug](M) −7.3): 13.9%; inhibition at 1 µM (Na^+, K^+-ATPase [5]; Log[drug](M) −6.0): 79.1%; inhibition at 1 µM (Na^+, K^+-ATPase [5]; Log[drug](M) −6.3): 48.5%; inhibition at 5 µM (Na^+, K^+-ATPase [5]): 96.3%; inhibition at 10 µM (Na^+, K^+-ATPase [5]): 96.1%; inhibition at 50 µM (Na^+, K^+-ATPase [5]): 100%; Sample Solubility (Na^+, K^+-ATPase [5]): Good |
